Measurements as given in patent publication US12510533B2, “Methods for treating multiple myeloma and the use of companion biomarkers for 4-(4-(4-(((2-(2,6-dioxopiperidin-3-yl)-1-oxoisoindolin-4-yl)oxy)methyl)benzyl)piperazin-1-yl)-3-fluorobenzonitrile” (Celgene Corporation, priority 2018, dated 2025).
Read-outs that look alike come from different tables or passages of the source.

Key:
OPM2 cells = assay: cells; assay type: cell-based, human; settings: for IC50: Homo sapiens
Method: The effect of the stabilizing mutations on cell proliferation was also measured.

Aiolos and Ikaros = Aiolos and Ikaros degradation and re-expression by flow cytometry in H929-1051 and OPM2-P10 cells; assay type: cell-based, human
Method: The cell lines were treated with a single continuous exposure to Compound 2, with no washout, and the levels of Aiolos and Ikaros were measured by flow cytometry. After treatment there was greater than 70% degradation of Aiolos and Ikaros within 3 to 6 hours, depending on the cell line (FIG. 7A and FIG. 7B). The depletion of substrates was sustained for up to 70 hours in H929-1051 cells or up to 100 hours in OPM2-P10 cells (FIG. 7A and FIG. 7B). Increasing the concentration 10-fold to 0.1 μM produced little to no additional degradation (FIG. 7A and FIG. 7B).
The effect of transient exposures of H929-1051 cells to Compound 2 on the degradation of Aiolos and Ikaros was also evaluated. A short transient exposure of 15 minutes at 0.1 μM Compound 2 induced Aiolos and Ikaros degradation (FIG. 8). Although the extent of degradation (25% to 50%) was not complete, a prolonged pharmacodynamic (PD) effect was seen that lasted between 25 and 50 hours post-exposure (FIG. 8).
To further understand the kinetics of Compound 2 exposure and Aiolos and Ikaros degradation, a longer exposure of 6 hours to Compound 2 (0.01 and 0.1 μM), followed by washout was investigated. Treatment with Compound 2 produced greater than 70% degradation of Aiolos and Ikaros (FIG. 9). […] Greater than 75% substrate recovery was seen by 25 hours in cells exposed to 0.01 μM Compound 2 and within 75 to 100 hours in cultures exposed to 0.1 μM Compound 2 (FIG. 9).

K562 cells = assay: Killing of untreated K562 cells by IL-2-activated PBMCs treated with compound (co-culture, Annexin V/PI); assay type: cell-based; settings: Homo sapiens, IL-2-activated PBMCs treated 72 hours, read-out: IC50, direct K562 cell killing by treated PBMCs
Method: Freshly isolated human PBMCs were cultured with recombinant IL-2 at concentration of 20 units/mL for 72 hours. Peripheral blood mononuclear cells were then spun down and re-suspended in fresh RPMI complete medium to 2×10^6 cells/mL. Cells were then treated with DMSO or Compound 2 at the indicated concentrations and incubated for an additional 72 hours. The PBMCs were then washed twice in fresh RPMI complete medium prior to coculture. K562 cells were re-suspended to a cell density of 1×10^6 cells/mL and stained with 1 μM CellTrace CFSE according to manufacturer's instructions. The labeled K562 cells were then seeded into a 96-well round bottom plate at 1×10^5 cells/well. […] Specific target cell lysis by PBMC mediated apoptosis was measured using Annexin V-fluorescein isothiocyanate (FITC) and propidium iodide (PI) according to manufacturer's instructions and samples were run on the FACS Array scan. […] All myeloma cell lines were kept in log phase, and cell density and viability were monitored by trypan blue exclusion using the Vi-CELL XR cell viability analyzer. […] Frozen PBMC donors, were thawed at 37° C. for 2 minutes in RPMI medium with 10% FBS and cell counts and viability were measured on the Vi-CELL® (Beckman Coulter). […] Peripheral blood mononuclear cells were counted and added to the MM cells at a target:effector (T:E) ratio of 1:5. […]

interferon gamma (IFN-γ) = assay: IFN-γ production by TCR-activated healthy PBMCs; assay type: cell-based, human; settings: 24 hours
Method: FIG. 21A-FIG. 21C illustrate that Compound 2 is a potent inducer of effector cytokines. […] (FIG. 21A) IL-2, (FIG. 21B) IFN-γ, and (FIG. 21C) TNF-α. Data shown are an average from three or four donors and are represented as fold change over DMSO control; error bars represent standard error of the mean (SEM).
The immunomodulatory activity of Compound 2 on T cell receptor (TCR)-activated healthy PBMCs was assessed. […] This increased in cytokine secretion was evident as early as 24 hours after introduction of Compound 2 with the peak of the effector cytokine production induced by Compound 2 being 5.5-fold for IL-2, 4.5-fold for interferon gamma (IFN-γ), and 2-fold for tumor necrosis factor alpha (TNF-α) above the vehicle control (FIG. 21A-FIG. 21C, respectively).

Ikaros and Aiolos = assay: Immunoblot of Ikaros and Aiolos in DF15R and DF15R-human CRBN WT cells; assay type: cell-based; settings: 0.1 μM, 4 hours
Method: Shown are Cereblon, Ikaros, and Aiolos immunoblots of extracts from DF15R and DF15R-human CRBN^WT cells that were incubated with DMSO, pomalidomide, or Compound 2 at 0.1 μM for 4 hours. Tubulin is a loading control.
To determine whether cereblon could serve as a biomarker for predicting response to Compound 2, the myeloma cell line DF15R was treated with Compound 2.

[1] = continuous exposure, OPM2-P10 cells

## N#Cc1ccc(N2CCN(Cc3ccc(COc4cccc5c4CN([C@H]4CCC(=O)NC4=O)C5=O)cc3)CC2)c(F)c1 [Compound 2, (S)-4-(4-(4-(((2-(2,6-dioxopiperidin-3-yl)-1-oxoisoindolin-4-yl)oxy)methyl)benzyl)piperazin-1-yl)-3-fluorobenzonitrile]
OPM2 cells; OPM-2, cells overexpressing stabilized Ikaros mutants (Ikaros-Q146H or Ikaros-G151A), read-out: concentration at which cells had their proliferation inhibited by 50%
  IC50: > 100 nM
OPM2 cells; OPM-2, overexpressing Aiolos Q147H, read-out: Inhibition of Proliferation of OPM2 Cells IC50
  IC50: 0.06 nM
OPM2 cells; OPM-2, overexpressing Aiolos, read-out: Inhibition of Proliferation of OPM2 Cells IC50
  IC50: 0.08 nM
OPM2 cells; OPM-2, overexpressing Ikaros-G151A, read-out: Inhibition of Proliferation of OPM2 Cells IC50
  IC50: > 100 nM
OPM2 cells; OPM-2, overexpressing Ikaros-Q146H, read-out: Inhibition of Proliferation of OPM2 Cells IC50
  IC50: > 100 nM
OPM2 cells; OPM-2, overexpressing Ikaros, read-out: Inhibition of Proliferation of OPM2 Cells IC50
  IC50: 0.13 nM
OPM2 cells; OPM-2, overexpressing ZFP91-Q400H, read-out: Inhibition of Proliferation of OPM2 Cells IC50
  IC50: 0.08 nM
OPM2 cells; cells overexpressing stabilized Ikaros mutants
  increase of the 50% inhibitory concentration relative to the parental cells: more than 200 fold
Aiolos and Ikaros; 6 hours exposure (0.01 and 0.1 μM) followed by washout
  degradation of Aiolos and Ikaros: greater than 70%
Aiolos and Ikaros; continuous exposure, H929-1051 cells
  duration of sustained depletion of substrates: up to 70 hours
Aiolos and Ikaros; [1]
  duration of sustained degradation of both proteins (Aiolos and Ikaros): more than 150 hours
  duration of sustained depletion of substrates: up to 100 hours
Aiolos and Ikaros; single continuous exposure, no washout, H929-1051 and OPM2-P10
  degradation of Aiolos and Ikaros: greater than 70%
K562 cells
  IC50: 0.0059 nM
Interferon gamma (IFN-γ)
  peak IFN-γ production above the vehicle control: 4.5 fold
Ikaros and Aiolos; DF15R cells, no detectable CRBN
  degradation of Ikaros or Aiolos: did not show any degradation
Ikaros and Aiolos; DF15R-human CRBN WT cells
  degradation of Ikaros and Aiolos after reintroduction of CRBN: reactivated
